Measured values: patent US8637075B2, “Colostrum composition” (Pharma GP ApS, priority 2008, dated 2014)

What was measured:
Assay type in all cases: cell-based
[1] = test system: indoleamine 2,3-dioxygenase (IDO) activity in PHA-stimulated PBMC; assay: Example 16: IDO activity (kyn/trp) in PHA-stimulated human PBMC; details: PHA 10 μg/ml, 48 h
Experimental: (§1) PBMC were isolated from whole blood obtained from healthy donors, of whom informed consent was obtained that their donated blood unit was used for scientific purposes if not otherwise used. Separation of blood cells was performed using density centrifugation (Lymphoprep, Nycomed Pharma AS, Oslo, Norway). After isolation, PBMC were washed three times in phosphate buffered saline containing […] [0.5 mmol/L]. Cells were maintained in RPMI 1640 supplemented with 10% heat-inactivated fetal calf serum (Biochrom, Berlin, Germany), 1% of 200 mmol/L glutamine (Serve, Heidelberg, Germany) and 0.1% of gentamicin (50 mg/ml, Bio-Whittaker, Walkersville, Md.) in a humidified atmosphere containing 5% CO2 for 48 h. This procedure was observed earlier to reveal best reproducible results when applied for testing of anti-inflammatory effects of compounds or drugs (Widner et al., 1997). Average tryptophan content in the supplemented RPMI 1640 medium was 31.5 μmol/L. For each of the three experiments run in duplicates, PBMC were freshly prepared. Isolated PBMC were plated at a density of 1.5×10^6 cells/ml in supplemented RPMI 1640, preincubated for 30 minutes with or without BC preparations and stimulated or not with 10 μg/ml PHA for 48 h.
(§2) After incubation of cells for 48 h, supernatants were harvested by centrifugation and tryptophan and kynurenine concentrations were measured by high performance liquid chromatography (HPLC) using 3-nitro-L-tyrosine as internal standard (Widner and others 1997). To estimate IDO activity, the kynurenine to tryptophan ratio (kyn/trp) was calculated and expressed as μmol kynurenine/mmol tryptophan (Widner et al., 1997). Neopterin concentrations were determined by ELISA (BRAHMS, Hennigsdorf/Berlin, Germany) according to the manufacturer's instructions with a detection limit of 2 nmol/L.
(§3) For statistical analysis, the Statistical Package for the Social Sciences (version 14 SPSS, Chicago, Ill., USA) was used. […] P-values below 0.05 were considered to indicate significant differences.

[2] = test system: neopterin formation in PHA-stimulated PBMC; assay: Example 16: neopterin formation in PHA-stimulated human PBMC; details: PHA 10 μg/ml, 48 h
Experimental: as §1, §2, §3

[3] = test system: indoleamine 2,3-dioxygenase (IDO) activity in unstimulated PBMC; assay: Example 16: IDO activity (kyn/trp) in unstimulated human PBMC; details: 20 mg/ml, 48 h
Experimental: (§4) PBMC were isolated from whole blood obtained from healthy donors, of whom informed consent was obtained that their donated blood unit was used for scientific purposes if not otherwise used. Separation of blood cells was performed using density centrifugation (Lymphoprep, Nycomed Pharma AS, Oslo, Norway). After isolation, PBMC were washed three times in phosphate buffered saline containing 0.2% EDTA [0.5 mmol/L]. Cells were maintained in RPMI 1640 supplemented with 10% heat-inactivated fetal calf serum (Biochrom, Berlin, Germany), 1% of 200 mmol/L glutamine (Serve, Heidelberg, Germany) and 0.1% of gentamicin (50 mg/ml, Bio-Whittaker, Walkersville, Md.) in a humidified atmosphere containing 5% CO2 for 48 h. […]
as §2, with “nmol/L. […]” for “nmol/L.”

[4] = test system: neopterin formation in unstimulated PBMC; assay: Example 16: neopterin formation in unstimulated human PBMC; details: 48 h
Experimental: as §4
as §2, with “nmol/L. […]” for “nmol/L.”

| Substance | Kyn/trp ([1]; PBMC) [μmol/mmol] | increase of IDO activity versus unstimulated PBMC ([1]; PBMC) | kynurenine concentration in the supernatant ([1]; PBMC) [µmol/L] | tryptophan content in the supernatant ([1]; PBMC) [µmol/L] | increase of neopterin concentration versus unstimulated PBMC ([2]; PBMC) | neopterin concentration in the supernatant ([2]; PBMC) [nmol/L] | IDO activity (kyn/trp) as % of PHA control ([1]; 0.2 mg/ml) [%] | IDO activity (kyn/trp) as % of unstimulated control [3] [%] | neopterin formation as % of PHA control ([2]; 2 mg/ml) [%] | neopterin formation as % of PHA control ([2]; 20 mg/ml) [%] | neopterin formation as % of unstimulated control ([4]; 0.2 mg/ml) [%] | neopterin formation as % of unstimulated control ([4]; 2 mg/ml) [%] |
| --- | --- | --- | --- | --- | --- | --- | --- | --- | --- | --- | --- | --- |
| phytohemagglutinin [phytohemagglutinin (PHA)] | 1312±459 | approximately 47 fold | 9.8 ± 1.3 | 8.2 ± 2.0 | about 3.6 fold | 13.2 ± 3.6 | – | – | – | – | – | – |
| lactoferrin | – | – | – | – | – | – | 34.0±9.7 | 54.7±5.0 | 61.3±11.7 | 31.1±3.9 | 125±2.8 | 132±4.1 |
